This passage reports EC50 and IC50 results from patent US10150747B2, “Compounds for the treatment of hepatitis C” (BRISTOL-MYERS SQUIBB COMPANY, priority 2015, dated 2018).

Each structure is given as a SMILES string. Like-named read-outs stand apart in the source and are kept apart here.

Assay [1] relates to genotype 1b (Con-1) HCV replicon in Huh-7 cells. Briefly: HCV replicon luciferase assay (1b replicon). The class given is cell-based. The note with it: Hepatitis C virus. The method, then:
The cell lines used to evaluate compounds consist of a human hepatocyte derived cell line (Huh-7) that constitutively expresses a genotype 1b (Con-1) HCV replicon or a genotype 1b (Con-1) HCV replicon with an asparagine replacing the cysteine at amino acid 316, or a genotype 2a (JFH-1) replicon, containing a Renilla luciferase reporter gene. These cells were maintained in Dulbecco's modified Eagle medium (DMEM) containing 10% FBS, 100 U/mL penicillin/streptomycin and 1.0 mg/mL G418.
HCV Replicon Luciferase Assay.
After 3 days incubation at 37° C., cells were analyzed for Renilla Luciferase activity using the EnduRen substrate (Promega cat #E6485) according to the manufacturer's directions. Briefly, the EnduRen substrate was diluted in DMEM and then added to the plates to a final concentration of 7.5 μM. The plates were incubated for at least 1 h at 37° C. then read on a Viewlux Imager (PerkinElmer) using a luminescence program.

For assay [2], the target named is HCV NS5B genotype 1b (Con1) (Hepatitis C virus genotype 1b (isolate Con1) (HCV), UniProt Q9WMX2). Briefly: HCV NS5B RdRp enzyme assay (1b enzyme). The conditions noted are these: genotype 1b NS5B enzyme. Format: biochemical. The method, then: HCV NS5B RdRp Cloning, Expression, and Purification.
Sequence of HCV NS5B genotype 1b (Con1) (Q9WMX2 2420-2992): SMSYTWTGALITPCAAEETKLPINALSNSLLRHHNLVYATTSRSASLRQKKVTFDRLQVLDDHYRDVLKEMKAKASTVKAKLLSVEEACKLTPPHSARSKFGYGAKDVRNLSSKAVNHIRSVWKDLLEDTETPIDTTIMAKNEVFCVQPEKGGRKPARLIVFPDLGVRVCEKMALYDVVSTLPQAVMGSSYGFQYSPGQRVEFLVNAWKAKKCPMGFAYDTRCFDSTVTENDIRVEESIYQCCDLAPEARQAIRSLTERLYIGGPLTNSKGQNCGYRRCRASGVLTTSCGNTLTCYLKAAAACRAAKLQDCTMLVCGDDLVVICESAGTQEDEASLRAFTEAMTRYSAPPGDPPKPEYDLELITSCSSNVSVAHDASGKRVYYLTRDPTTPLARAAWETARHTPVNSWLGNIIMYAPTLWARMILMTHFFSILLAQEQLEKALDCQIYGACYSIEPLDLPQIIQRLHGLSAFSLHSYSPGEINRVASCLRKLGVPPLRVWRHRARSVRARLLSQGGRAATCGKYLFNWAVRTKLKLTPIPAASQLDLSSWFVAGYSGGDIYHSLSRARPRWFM
The cDNA encoding NS5B proteins of HCV genotype 1b (Con1), a genotype 1b variant with amino acid 316 mutated from cysteine to asparagine, and genotype 2a (JFH-1), were cloned into the pET21a expression vector. Each untagged protein was expressed with an 18 amino acid C-terminal truncation to enhance the solubility. The E. coli competent cell line BL21(DE3) was used for expression of the protein. Cultures were grown at 37° C. for ˜4 hours until the cultures reached an optical density of 2.0 at 600 nm. The cultures were cooled to 20° C. and induced with 1 mM IPTG. Fresh ampicillin was added to a final concentration of 50 μg/mL and the cells were grown overnight at 20° C.
The lysis buffer consisted of 20 mM Tris-HCl, pH 7.4, 500 mM NaCl, 0.5% triton X-100, 1 mM DTT, 1 mM EDTA, 20% glycerol, 0.5 mg/mL lysozyme, 10 mM MgCl2, 15 ug/mL deoxyribonuclease I, and Complete TM protease inhibitor tablets (Roche). After addition of the lysis buffer, frozen cell pellets were resuspended using a tissue homogenizer. To reduce the viscosity of the sample, aliquots of the lysate were sonicated on ice using a microtip attached to a Branson sonicator. The sonicated lysate was centrifuged at 100,000×g for 30 minutes at 4° C. and filtered through a 0.2 μm filter unit (Corning).
The protein was purified using two sequential chromatography steps: Heparin sepharose CL-6B and polyU sepharose 4B. The chromatography buffers were identical to the lysis buffer but contained no lysozyme, deoxyribonuclease I, MgCl2 or protease inhibitor and the NaCl concentration of the buffer was adjusted according to the requirements for charging the protein onto the column. Each column was eluted with a NaCl gradient which varied in length from 5-50 column volumes depending on the column type. […] The enzyme was aliquoted and stored at −80° C.
HCV NS5B RdRp Enzyme Assay.
An on-bead solid phase homogeneous assay was used in a 384-well format to assess NS5B inhibitors (WangY-K, Rigat K, Roberts S, and Gao M (2006) Anal Biochem, 359: 106-111). The biotinylated oligo dT12 primer was captured on streptavidin-coupled imaging beads (GE, RPNQ0261) by mixing primer and beads in 1× buffer and incubating at room temperature for three hours. Unbound primer was removed after centrifugation. The primer-bound beads were resuspended in 3× reaction mix (20 mM Hepes buffer, pH 7.5, dT primer coupled beads, poly A template, ^3H-UTP, and RNAse inhibitor (Promega N2515)). Compounds were serially diluted 1:3 in DMSO and aliquoted into assay plates. Equal volumes (5 μL) of water, 3× reaction mix, and enzyme in 3× assay buffer (60 mM Hepes buffer, pH 7.5, 7.5 mM MgCl2, 7.5 mM KCl, 3 mM DTT, 0.03 mg/mL BSA, 6% glycerol) were added to the diluted compound on the assay plate. Final concentration of components in 384-well assay: 0.36 nM template, 15 nM primer, 0.29 μM ^3H-UTP (0.3 μCi), 1.6 U/4 RNAse inhibitor, 7 nM NS5B enzyme, 0.01 mg/mL BSA, 1 mM DTT, and 0.33 μg/μL beads, 20 mM Hepes buffer, pH 7.5, 2.5 mM MgCl2, 2.5 mM KCl, and 0.1% DMSO.
Reactions were allowed to proceed for 24 hours at 30° C. and terminated by the addition of 50 mM EDTA (5 μL). After incubating for at least 15 minutes, plates were read on an Amersham LEADseeker multimodality imaging system.
IC50 values for compounds were determined using ten different [I]. IC50 values were calculated from the inhibition using the four-parameter logistic formula y=A+((B−A)/(1+((C/x)^D))), where A and B denote minimal and maximal % inhibition, respectively, C is the IC50, D is hill slope and x represents compound concentration.

The mark [3] stands for this setting: 72 h, genotype 1b replicon, Huh-7, Renilla luciferase, 3 days incubation, read-out: EC50.

For the molecule `CNC(=O)c1c(-c2ccc(F)cc2)oc2cc(OCC(F)(F)F)c(-c3cccc(C(=O)NC(C)(C)c4ncon4)c3)cc12` [Example 21, 5-(3-((2-(1,2,4-oxadiazol-3-yl)propan-2-yl)carbamoyl)phenyl)-2-(4-fluorophenyl)-N-methyl-6-(2,2,2-trifluoroethoxy)benzofuran-3-carboxamide], the EC50 (as a rule, the concentration needed to bring the measured effect to its halfway point) in assay [1] (setting [3]) was 10 nM. For the same molecule, the IC50 (commonly the midpoint of a concentration-inhibition curve) in assay [2] stood at 4.49 nM. `[2H]C([2H])([2H])Oc1ncc(-c2cc3c(C(=O)NC)c(-c4ccc(F)cc4)oc3cc2OCC)cc1C(=O)NC(C)(C)C#N` [Example 17, N-(2-cyanopropan-2-yl)-5-(6-ethoxy-2-(4-fluorophenyl)-3-(methylcarbamoyl)benzofuran-5-yl)-2-(methoxy-d3)nicotinamide] had a concentration for a half-maximal effect (EC50) in assay [1] (Huh-7, 72 h) of 2.8 nM. Besides, the IC50 in assay [2] is 1.84 nM. As to `CCOc1cc2oc(-c3ccc(F)cc3)c(C(=O)NC)c2cc1-c1cccc(C(=O)NC(C)(C)c2nc3ccncc3[nH]2)c1` [Example 32, 5-(3-((2-(3H-imidazo[4,5-c]pyridin-2-yl)propan-2-yl)carbamoyl)phenyl)-6-ethoxy-2-(4-fluorophenyl)-N-methylbenzofuran-3-carboxamide], in assay [1] (setting [3]), the concentration for a half-maximal effect (EC50) turned out to be 10 nM. In addition, half-maximal inhibition in assay [2] (IC50) required 6.01 nM. For the molecule `CNC(=O)c1c(-c2ccc(F)cc2)oc2cc(OCC(F)(F)F)c(-c3cnc(OC)c(C(=O)NC(C)(C)c4ncon4)c3)cc12` [Example 31, N-(2-(1,2,4-Oxadiazol-3-yl)propan-2-yl)-5-(2-(4-fluorophenyl)-3-(methylcarbamoyl)-6-(2,2,2-trifluoroethoxy)benzofuran-5-yl)-2-methoxynicotinamide], in assay [1] (setting [3]), the EC50 came to 3.21 nM. Take `CNC(=O)c1c(-c2ccc(F)cc2)oc2cc(OCC(F)(F)F)c(-c3ccc(OC)c(C(=O)NC(C)(C)c4ncon4)c3)cc12` [Example 18, 5-(3-((2-(1,2,4-oxadiazol-3-yl)propan-2-yl)carbamoyl)-4-methoxyphenyl)-2-(4-fluorophenyl)-N-methyl-6-(2,2,2-trifluoroethoxy)benzofuran-3-carboxamide]: the EC50 in assay [1] (setting [3]) was determined as 2.85 nM. In assay [2], it took 2.83 nM to reach half-maximal inhibition (IC50). The corresponding values for `CNC(=O)c1c(-c2ccc(F)cc2)oc2cc(OCC(F)(F)F)c(-c3cccc(C(=O)NC4(c5ncccn5)CC4)c3)cc12` [Example 1, 2-(4-Fluorophenyl)-N-methyl-5-(3-((1-(pyrimidin-2-yl)cyclopropyl)carbamoyl)phenyl)-6-(2,2,2-trifluoroethoxy)benzofuran-3-carboxamide] are 10 nM and 7.42 nM.

Regarding `CNC(=O)c1c(-c2ccc(F)cc2)oc2cc(OCCO)c(-c3ccc(OC)c(C(=O)NC(C)(C)c4ncon4)c3)cc12` [Example 34, 5-(3-((2-(1,2,4-Oxadiazol-3-yl)propan-2-yl)carbamoyl)-4-methoxyphenyl)-2-(4-fluorophenyl)-6-(2-hydroxyethoxy)-N-methylbenzofuran-3-carboxamide], the half-maximal effective concentration (EC50) in assay [1] (setting [3]) came to 8.31 nM. Also, it took 3.89 nM to reach half-maximal inhibition in assay [2] (IC50). Take `CCOc1cc2oc(-c3ccc(F)cc3)c(C(=O)NC)c2cc1-c1ccc(OC)c(C(=O)NC23CC(C2)C3)c1` [Example 11, 5-(3-(Bicyclo[1.1.1]pentan-1-ylcarbamoyl)-4-methoxyphenyl)-6-ethoxy-2-(4-fluorophenyl)-N-methylbenzofuran-3-carboxamide]: the concentration giving a half-maximal response (EC50) in assay [1] (setting [3]) was found to be 9.63 nM. Regarding `CCOc1cc2oc(-c3ccc(F)cc3)c(C(=O)NC)c2cc1-c1ccc(OC)c(C(=O)NC2(c3ncccn3)CC2)c1` [Example 12, 6-Ethoxy-2-(4-fluorophenyl)-5-(4-methoxy-3-((1-(pyrimidin-2-yl)cyclopropyl)carbamoyl)phenyl)-N-methylbenzofuran-3-carboxamide], in assay [1] (setting [3]), the EC50 was found to be 4.2 nM. Further, the midpoint of inhibition in assay [2], the IC50, lay at 1.89 nM.

`CNC(=O)c1c(-c2ccc(F)cc2)oc2cc(OCC(F)F)c(-c3cccc(C(=O)NC4(c5ncccn5)CC4)c3)cc12` [Example 20, 6-(2,2-difluoroethoxy)-2-(4-fluorophenyl)-N-methyl-5-(3-((1-(pyrimidin-2-yl)cyclopropyl)carbamoyl)phenyl)benzofuran-3-carboxamide] came in with an EC50 in assay [1] (Huh-7, 72 h) of 6.79 nM. In assay [2], the IC50 amounted to 4.54 nM. Consider `CNC(=O)c1c(-c2ccc(F)cc2)oc2cc(OCC(F)(F)F)c(-c3cccc(C(=O)NC(C)(C)C#N)c3)cc12` [Example 10, 5-(3-((2-Cyanopropan-2-yl)carbamoyl)phenyl)-2-(4-fluorophenyl)-N-methyl-6-(2,2,2-trifluoroethoxy)benzofuran-3-carboxamide], for which the EC50 in assay [1] (setting [3]) amounted to 5.01 nM. In addition, 3.02 nM corresponded to half-maximal inhibition in assay [2] (IC50). In the case of `CCOc1cc2oc(-c3ccc(F)cc3)c(C(=O)NC)c2cc1-c1cnc(OC)c(C(=O)NC23CC(C2)C3)c1` [Example 15, N-(bicyclo[1.1.1]pentan-1-yl)-5-(6-ethoxy-2-(4-fluorophenyl)-3-(methylcarbamoyl)benzofuran-5-yl)-2-methoxynicotinamide], in assay [1] (setting [3]), the concentration for a half-maximal effect (EC50) was found to be 7.03 nM. In addition, the IC50 in assay [2] came to 2.48 nM. For `CCOc1cc2oc(-c3ccc(F)cc3)c(C(=O)NC)c2cc1-c1cnc(OC)c(C(=O)NC2(c3ncccn3)CC2)c1` [Example 13, 5-(6-Ethoxy-2-(4-fluorophenyl)-3-(methylcarbamoyl)benzofuran-5-yl)-2-methoxy-N-(1-(pyrimidin-2-yl)cyclopropyl)nicotinamide] the same measures were 3.67 nM and 2.72 nM. For `CCOc1cc2oc(-c3ccc(F)cc3)c(C(=O)NC)c2cc1-c1cccc(C(=O)NC23CC(C2)C3)c1` [Example 5, 5-(3-(Bicyclo[1.1.1]pentan-1-ylcarbamoyl)phenyl)-6-ethoxy-2-(4-fluorophenyl)-N-methylbenzofuran-3-carboxamide] the same measures were 6.5 nM and 4.3 nM.

With `[2H]C([2H])([2H])Oc1ccc(-c2cc3c(C(=O)NC)c(-c4ccc(F)cc4)oc3cc2OCC)cc1C(=O)NC(C)(C)c1ncsn1` [Example 33, 5-(3-((2-(1,2,4-thiadiazol-3-yl)propan-2-yl)carbamoyl)-4-(methoxy-d3)phenyl)-6-ethoxy-2-(4-fluorophenyl)-N-methylbenzofuran-3-carboxamide], the EC50 in assay [1] (setting [3]) worked out at 2.49 nM. In addition, the midpoint of inhibition in assay [2], the IC50, lay at 2.04 nM. In the case of `CNC(=O)c1c(-c2ccc(F)cc2)oc2cc(OCC(F)(F)F)c(-c3cnc(OC)c(C(=O)NC45CC(C4)C5)c3)cc12` [Example 30, N-(Bicyclo[1.1.1]pentan-1-yl)-5-(2-(4-fluorophenyl)-3-(methylcarbamoyl)-6-(2,2,2-trifluoroethoxy)benzofuran-5-yl)-2-methoxynicotinamide], in assay [1] (setting [3]), the EC50 was determined as 10 nM.
